Results on eleven compounds are retold here after patent US20260295053A1, “COMPOUNDS FOR DEGRADATION AND INHIBITION OF KRAS (G12D) PROTEIN” (Shenzhen Ionova Life Science Co., Ltd., priority 2023, published 2026).

Structures are written as SMILES. Where only a bound is given, the exact number is not on record here.

The target of test [1] is T1, KRAS (G12D) (Homo sapiens, UniProt P01116, G12D).
T1 construct: in-cell western with KRAS G12D antibody after 24 h
As to the kind of experiment: KRAS (G12D) cellular degradation assay in AsPC-1 cells. The test is classed as cell-based. The following applies: 24 hours, antibody fluorescence (Odyssey CLX), DC50 half-maximal degradation concentration. A digest of the protocol: (§1)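 Half-maximal degradation (DC50) and inhibition (IC50) concentrations are fitted from dose-response curves spanning […] to 1.5 nM final. KRAS G12D loss is measured by fluorescent antibody staining with β-actin reference after 24 h; growth is measured by ATP luminescence after a 6-day exposure.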

Test [2] deals with AsPC-1 cells. As to the kind of experiment: AsPC-1 cell proliferation assay (CellTiter Glo). The test is classed as cell-based. The following applies: Homo sapiens, ASPC1, 144 h, 6 days. The method, boiled down:
as §1

The term DC50 denotes the concentration giving 50% degradation. A lower DC50 goes with degradation at low concentration. The term IC50 denotes the midpoint of a concentration-inhibition curve. Low readings indicate higher potency, high ones lower potency.

T1 sequence (P01116 1-188 isoform P01116-2 G12D): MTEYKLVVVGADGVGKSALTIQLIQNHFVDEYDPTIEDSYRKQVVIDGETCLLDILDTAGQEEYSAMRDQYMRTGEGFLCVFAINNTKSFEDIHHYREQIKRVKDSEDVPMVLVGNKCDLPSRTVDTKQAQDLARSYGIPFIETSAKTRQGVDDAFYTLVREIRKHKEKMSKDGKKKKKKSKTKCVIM

Regarding `CCn1nccc1-c1ccc([C@H](CO)NC(=O)[C@@H]2C[C@@H](O)CN2C(=O)[C@H](C(C)C)n2cc(-c3ccc(COc4c(-c5c(C)c(F)cc6[nH]ncc56)c(C5CC5)cc5c(N6C[C@@H]7C[C@H]6CN7)nc(OC6CC7COCC7C6)nc45)cc3)nn2)cc1` (stereo partly drawn) [Example 104, (2S,4R)-1-((2S)-2-(4-(4-(((4-((1S,4S)-2,5-diazabicyclo[2.2.1]heptan-2-yl)-6-cyclopropyl-7-(6-fluoro-5-methyl-1H-indazol-4-yl)-2-((hexahydro-1H-cyclopenta[c]furan-5-yl)oxy)quinazolin-8-yl)oxy)methyl)phenyl)-1H-1,2,3-triazol-1-yl)-3-methylbutanoyl)-N—((R)-1-(4-(1-ethyl-1H-pyrazol-5-yl)phenyl)-2-hydroxyethyl)-4-hydroxypyrrolidine-2-carboxamide], the DC50 in test [1] is less than 10 nM. Moreover, in test [2], the IC50 is less than 10 nM.

`CCn1nccc1-c1ccc([C@H](CO)NC(=O)[C@@H]2C[C@@H](O)CN2C(=O)[C@H](C(C)C)n2cc(-c3ccc(COc4c(-c5c(C)c(F)cc6[nH]ncc56)c(C5CC5)cc5c(N6C[C@@H]7C[C@H]6CN7)nc(OC6CC7(CCOCC7)C6)nc45)cc3)nn2)cc1` [Example 105, (2S,4R)-1-((2S)-2-(4-(4-(((2-((7-oxaspiro[3.5]nonan-2-yl)oxy)-4-((1S,4S)-2,5-diazabicyclo[2.2.1]heptan-2-yl)-6-cyclopropyl-7-(6-fluoro-5-methyl-1H-indazol-4-yl)quinazolin-8-yl)oxy)methyl)phenyl)-1H-1,2,3-triazol-1-yl)-3-methylbutanoyl)-N—((R)-1-(4-(1-ethyl-1H-pyrazol-5-yl)phenyl)-2-hydroxyethyl)-4-hydroxypyrrolidine-2-carboxamide] came in with a DC50 in test [1] of less than 10 nM. In test [2], this compound gave an IC50 of less than 10 nM.

Turning to `CCn1nccc1-c1ccc([C@H](CO)NC(=O)[C@@H]2C[C@@H](O)CN2C(=O)[C@H](C(C)C)n2cc(-c3ccc(COc4c(-c5c(C)c(F)cc6[nH]ncc56)c(C5CC5)cc5c(N6CCCNCC6)nc(OC[C@H](C)OC)nc45)cc3)nn2)cc1` [Example 107, (2S,4R)-1-((2S)-2-(4-(4-(((6-cyclopropyl-4-(1,4-diazepan-1-yl)-7-(6-fluoro-5-methyl-1H-indazol-4-yl)-2-((S)-2-methoxypropoxy)quinazolin-8-yl)oxy)methyl)phenyl)-1H-1,2,3-triazol-1-yl)-3-methylbutanoyl)-N—((R)-1-(4-(1-ethyl-1H-pyrazol-5-yl)phenyl)-2-hydroxyethyl)-4-hydroxypyrrolidine-2-carboxamide], the DC50 in test [1] is less than 10 nM. This compound also registered an IC50 in test [2] of less than 10 nM.

In test [1], `CCn1nccc1-c1ccc([C@@H](NC(=O)[C@@H]2C[C@@H](O)CN2C(=O)[C@H](C(C)C)n2cc(-c3ccc(COc4c(-c5c(C)c(F)cc6[nH]ncc56)c(C5CC5)cc5c(N6C[C@@H]7C[C@H]6CN7)nc(O[C@H]6C[C@H](OC)C6)nc45)cc3)nn2)[C@H](C)O)cc1` [Example 109, (2S,4R)-1-((2S)-2-(4-(4-(((4-((1S,4S)-2,5-diazabicyclo[2.2.1]heptan-2-yl)-6-cyclopropyl-7-(6-fluoro-5-methyl-1H-indazol-4-yl)-2-((1r,3S)-3-methoxycyclobutoxy)quinazolin-8-yl)oxy)methyl)phenyl)-1H-1,2,3-triazol-1-yl)-3-methylbutanoyl)-N-((1R,2S)-1-(4-(1-ethyl-1H-pyrazol-5-yl)phenyl)-2-hydroxypropyl)-4-hydroxypyrrolidine-2-carboxamide] displayed a DC50 of less than 10 nM. The IC50 in test [2] was less than 10 nM.

On to `CO[C@@H](C)COc1nc(N2C[C@@H]3C[C@H]2CN3)c2cc(C3CC3)c(-c3c(C)c(F)cc4[nH]ncc34)c(OCc3ccc(-c4cn([C@H](C(=O)N5C[C@H](O)C[C@H]5C(=O)N[C@H](C#Cc5ccc6nc(N)sc6c5)CO)C(C)C)nn4)cc3)c2n1` [Example 111, (2S,4R)-1-((2S)-2-(4-(4-(((4-((1S,4S)-2,5-diazabicyclo[2.2.1]heptan-2-yl)-6-cyclopropyl-7-(6-fluoro-5-methyl-1H-indazol-4-yl)-2-((S)-2-methoxypropoxy)quinazolin-8-yl)oxy)methyl)phenyl)-1H-1,2,3-triazol-1-yl)-3-methylbutanoyl)-N—((R)-4-(2-aminobenzo[d]thiazol-6-yl)-1-hydroxybut-3-yn-2-yl)-4-hydroxypyrrolidine-2-carboxamide], for which the DC50 in test [1] is less than 10 nM. Also, the concentration for half-maximal inhibition (IC50) in test [2] is less than 10 nM.

`CCn1nccc1-c1ccc([C@H](CO)NC(=O)[C@@H]2C[C@@H](O)CN2C(=O)[C@H](C(C)C)n2cc(-c3ccc(COc4c(-c5c(C)c(F)cc6[nH]ncc56)c(C5CC5)cc5c(N6C[C@@H]7C[C@H]6CN7)nc(N6CCC(OC)C6)nc45)cc3)nn2)cc1` (stereo partly drawn) [Example 112, (2S,4R)-1-((2S)-2-(4-(4-(((4-((1S,4S)-2,5-diazabicyclo[2.2.1]heptan-2-yl)-6-cyclopropyl-7-(6-fluoro-5-methyl-1H-indazol-4-yl)-2-(3-methoxypyrrolidin-1-yl)quinazolin-8-yl)oxy)methyl)phenyl)-1H-1,2,3-triazol-1-yl)-3-methylbutanoyl)-N—((R)-1-(4-(1-ethyl-1H-pyrazol-5-yl)phenyl)-2-hydroxyethyl)-4-hydroxypyrrolidine-2-carboxamide] gave a DC50 in test [1] of less than 10 nM. The compound also displayed an IC50 in test [2] of less than 10 nM.

`CCn1nccc1-c1ccc([C@@H](NC(=O)[C@@H]2C[C@@H](O)CN2C(=O)[C@H](C(C)C)n2cc(-c3ccc(COc4c(-c5c(C)c(F)cc6[nH]ncc56)c(C5CC5)cc5c(N6C[C@@H]7C[C@H]6CN7)nc(OC6CC7(CCOCC7)C6)nc45)cc3)nn2)[C@H](C)O)cc1` [Example 113, (2S,4R)-1-((2S)-2-(4-(4-(((2-((7-oxaspiro[3.5]nonan-2-yl)oxy)-4-((15,45)-2,5-diazabicyclo[2.2.1]heptan-2-yl)-6-cyclopropyl-7-(6-fluoro-5-methyl-1H-indazol-4-yl)quinazolin-8-yl)oxy)methyl)phenyl)-1H-1,2,3-triazol-1-yl)-3-methylbutanoyl)-N-((1R,2S)-1-(4-(1-ethyl-1H-pyrazol-5-yl)phenyl)-2-hydroxypropyl)-4-hydroxypyrrolidine-2-carboxamide] had a 50% degradation concentration (DC50) in test [1] of less than 10 nM. The compound further yielded a half-maximal inhibitory concentration (IC50) in test [2] of less than 10 nM.

The compound `CCn1nccc1-c1ccc([C@@H](NC(=O)[C@@H]2C[C@@H](O)CN2C(=O)[C@H](C(C)C)n2cc(-c3ccc(COc4c(-c5c(C)c(F)cc6[nH]ncc56)c(C5CC5)cc5c(N6C[C@@H]7C[C@H]6CN7)nc(OC6CC7(CCOC7)C6)nc45)cc3)nn2)[C@H](C)O)cc1` (stereo partly drawn) [Example 114, (2S,4R)-1-((2S)-2-(4-(4-(((2-((6-oxaspiro[3.4]octan-2-yl)oxy)-4-((1S,4S)-2,5-diazabicyclo[2.2.1]heptan-2-yl)-6-cyclopropyl-7-(6-fluoro-5-methyl-1H-indazol-4-yl)quinazolin-8-yl)oxy)methyl)phenyl)-1H-1,2,3-triazol-1-yl)-3-methylbutanoyl)-N-((1R,2S)-1-(4-(1-ethyl-1H-pyrazol-5-yl)phenyl)-2-hydroxypropyl)-4-hydroxypyrrolidine-2-carboxamide] returned a DC50 in test [1] of less than 10 nM. This compound also gave an IC50 in test [2] of less than 10 nM.

Compound `CCn1nccc1-c1ccc([C@@H](NC(=O)[C@@H]2C[C@@H](O)CN2C(=O)[C@H](C(C)C)n2cc(-c3ccc(COc4c(-c5c(C)c(F)cc6[nH]ncc56)c(C5CC5)cc5c(N6C[C@@H]7C[C@H]6CN7)nc(OC6CC7COCC7C6)nc45)cc3)nn2)[C@H](C)O)cc1` (stereo partly drawn) [Example 115, (2S,4R)-1-((2S)-2-(4-(4-(((4-((1S,4S)-2,5-diazabicyclo[2.2.1]heptan-2-yl)-6-cyclopropyl-7-(6-fluoro-5-methyl-1H-indazol-4-yl)-2-((hexahydro-1H-cyclopenta[c]furan-5-yl)oxy)quinazolin-8-yl)oxy)methyl)phenyl)-1H-1,2,3-triazol-1-yl)-3-methylbutanoyl)-N-((1R,2S)-1-(4-(1-ethyl-1H-pyrazol-5-yl)phenyl)-2-hydroxypropyl)-4-hydroxypyrrolidine-2-carboxamide] displayed a DC50 in test [1] of less than 10 nM. In test [2], the IC50 is less than 10 nM.

Compound `CO[C@@H](C)COc1nc(N2C[C@@H]3C[C@H]2CN3)c2cc(C3CC3)c(-c3c(C)c(F)cc4[nH]ncc34)c(OCc3ccc(-c4cn([C@H](C(=O)N5C[C@H](O)C[C@H]5C(=O)N[C@H](C#Cc5cccc6nn(C)cc56)CO)C(C)C)nn4)cc3)c2n1` [Example 116, (2S,4R)-1-((2S)-2-(4-(4-(((4-((1S,4S)-2,5-diazabicyclo[2.2.1]heptan-2-yl)-6-cyclopropyl-7-(6-fluoro-5-methyl-1H-indazol-4-yl)-2-((S)-2-methoxypropoxy)quinazolin-8-yl)oxy)methyl)phenyl)-1H-1,2,3-triazol-1-yl)-3-methylbutanoyl)-4-hydroxy-N—((R)-1-hydroxy-4-(2-methyl-2H-indazol-4-yl)but-3-yn-2-yl)pyrrolidine-2-carboxamide] gave a DC50 in test [1] of less than 10 nM. In addition, the IC50 in test [2] is less than 10 nM.

For `CCn1nccc1-c1ccc([C@@H](NC(=O)[C@@H]2C[C@@H](O)CN2C(=O)[C@H](C(C)C)n2cc(-c3ccc(COc4c(-c5c(C)c(F)cc6[nH]ncc56)c(C5CC5)cc5c(N6C[C@@H]7C[C@H]6CN7)nc(OCC(OC)C(F)F)nc45)cc3)nn2)[C@H](C)O)cc1` (stereo partly drawn) [Example 119, (2S,4R)-1-((2S)-2-(4-(4-(((4-((1S,4S)-2,5-diazabicyclo[2.2.1]heptan-2-yl)-6-cyclopropyl-2-(3,3-difluoro-2-methoxypropoxy)-7-(6-fluoro-5-methyl-1H-indazol-4-yl)quinazolin-8-yl)oxy)methyl)phenyl)-1H-1,2,3-triazol-1-yl)-3-methylbutanoyl)-N-((1R,2S)-1-(4-(1-ethyl-1H-pyrazol-5-yl)phenyl)-2-hydroxypropyl)-4-hydroxypyrrolidine-2-carboxamide], the DC50 in test [1] was less than 10 nM. This compound also yielded an IC50 in test [2] of less than 10 nM.
